# Experimental data as given in US4782052A, “Octahydroindolo[2,3-a]quinolizin-1-yl-alkanecarboxylic acid amines and their therapeutically useful acid addition salts, pharmaceutical compositions containing them and process for preparing same” (Richter Gedeon Vegyeszeti Gyar Rt., priority 1984, dated 1988).
# Where two headings read alike, the source gives them in different places.
# How the values were obtained:
# [1] = test system: Indomethacin-induced intestinal ulceration; experiment: Inhibition of the Indomethacin-induced intestinal ulceration; format: in vivo, H-Wistar rats; conditions: for Tensile strength of the intestinal wall at 24 hours after the last treatment: 3 consecutive days, ± S.E.M., Indomethacin control 72 ± 10, untreated 237 ± 4; for Resistance of the intestinal wall as % of the normal value: Indomethacin control 30
# Method: Inhibition of the Indomethacin-induced intestinal ulceration Unstarved H-Wistar rats weighing 120 to 150 g. were used for these investigations. The animals were orally treated with Indomethacin. Under these conditions a period of 24 to 48 hours is at least required for the development of visually observable intestinal ulcers. For evaluating the small intestine ulcers, the tensile strength of the intestinal wall was determined by using the inflation method of Ezer and Sporny (1975), as the strength of the intestinal wall is diminished by the ulceration-induced erosion. The small intestine from the pylorus down to the caecum was removed and after ligation of the end it was connected through a polyethylene tube with a W+W electronic BP 8005 pressure recorder (Ugo Basile, Italy). The whole small intestine was placed into a 0.9% saline solution at 37° C. and the pressure was increased until air bubbles appeared at the attenuated (weakened) sites of the intestinal wall. This pressure as expressed in mmHg is the measure of the tensile strength.
# [2] = test system: ethanolic hydrochloric acid-induced gastric edema and hemorrhagic lesions; experiment: Inhibition of the ethanolic hydrochloric acid-induced gastric necrosis; format: in vivo, Female RG-Wistar rats; conditions: for Hemorrhagic lesions / Edema: ± S.E.M.; for Hemorrhagic lesions: control 132 ± 7; for Edema: control 349 ± 81; for ED50: Rattus norvegicus, oral
# Method: Inhibition of the ethanolic hydrochloric acid-induced gastric necrosis Female RG-Wistar rats weighing 120 to 150 g. were used for these investigations. The animals were starved for 24 hours while receiving water ad libitum. […] The test substances were orally administered 30 minutes before the treatment with the ethanolic hydrochloric acid. One hour later the animals were killed by an overdose of ether. Their stomach was removed and cut along the major curvature. The stomach was cleaned and its wet weight was weighed. The gastric edema was calculated from the difference between the obtained wet weight and the wet weight of the stomach of the untreated animals. Thereafter, the stomach was dried at room temperature and the presence of the hemorrhagic lesions was visually observed on the next day. The degree of the gastric necrosis was characterized by the mean value of the damage in mm./stomach. The results were statistically evaluated by Student's test.
# [3] = test system: aspirin-induced stomach ulcer; experiment: Inhibition of the aspirin-induced stomach ulcer in rats; format: in vivo, Female H-Wistar rats; conditions: for No. of ulcers per stomach: ± S.E.M., aspirin control 16.6 ± 5
# Method: Inhibition of the aspirin-induced stomach ulcer in rats
# This test is very common in the pharmacological practice. Female H-Wistar rats weighing 120 to 150 g. were starved for 24 hours while receiving water ad libitum. The stomach ulcer was induced by the oral administration of 100 mg./kg. aspirin in a Tween 80 suspension. The test substance was given immediately after the aspirin treatment. At the end of the 4th hour after treatment the animals were killed by an overdose of ether, their stomach was excised and cut along the major curvature. The stomach content was washed out and the hemorrhagic lesions on the glandular surface were counted.
# [4] = Oral toxicity in rats; conditions: rat, in vivo
# [5] = test system: gastric acid secretion in Shay rats; experiment: Inhibition of the gastric acid secretion in Shay rats; format: in vivo, Female H-Wistar rats; conditions: for HCl output (4 hours): N 5, control 520 ± 28
# Method: Inhibition of the gastric acid secretion in Shay rats
# Female H-Wistar rats weighing 120 to 150 g were starved for 24 hours while receiving water ad libitum. Then, the pylorus of the animals was ligated under a mild ether anesthesia. The test substances were administered orally or intraperitoneally. After 4 hours the animals were killed by an overdose of ether and after excision of the stomach, the volume and pH value of the gastric juice were measured. The acid content was determined by titration against 0.01N sodium hydroxide solution by using phenolphthalein as indicator.
# [6] = 3 × (50 + 10) mg./kg. p.o. with Indomethacin
# [7] = 3 × (25 + 10) mg./kg. p.o. with Indomethacin
# [8] = 50 mg./kg. p.o., p < 0.01 vs control
compound,measurement,setting,value
"CN/C(=N/CCSCc1nc[nH]c1C)NC#N [Cimetidine, reference compound]",Tensile strength of the intestinal wall at 24 hours after the last treatment,[1]; [6],20 ± 25 mmHg
same,Resistance of the intestinal wall as % of the normal value,[1]; [6],8%
same,Edema Inhibition,[2]; 100 mg./kg. p.o.,14%
same,Hemorrhagic lesions Inhibition,"[2]; 100 mg./kg. p.o., p < 0.01 vs control",69%
same,Hemorrhagic lesions,"[2]; 100 mg./kg. p.o., N 8",42 ± 13 mm.
same,Edema,"[2]; 100 mg./kg. p.o., N 8",301 ± 42 mg
"CN1CCN(CC(=O)N2c3ccccc3C(=O)Nc3cccnc32)CC1 [Pirenzepine, reference compound]",Tensile strength of the intestinal wall at 24 hours after the last treatment,[1]; [6],121 ± 26 mmHg
same,Resistance of the intestinal wall as % of the normal value,[1]; [6],51%
"CC[C@@]1(CCC(=O)N[C@H](C)c2ccccc2)CCCN2CCc3c([nH]c4ccccc34)[C@@H]21 [RGH-2961, (-)-(1S,12bS)-1-ethyl-1,2,3,4,6,7,12,12b-octahydroindolo[2,3-a]quinolizin-1-yl-propionic acid (R)-1-phenylethylamide]",No. of ulcers per stomach,"[3]; 5 mg./kg. p.o. + aspirin 100 mg./kg., N 10",7.1 ± 2
same,Inhibition,"[3]; 5 mg./kg. p.o., p < 0.01 vs aspirin control",58%
same,Inhibition,[3]; 10 mg./kg. p.o.,32%
same,No. of ulcers per stomach,"[3]; 10 mg./kg. p.o. + aspirin 100 mg./kg., N 10",11.0 ± 3
same,No. of ulcers per stomach,"[3]; 20 mg./kg. p.o. + aspirin 100 mg./kg., N 20",3.5 ± 2.1
same,Inhibition,"[3]; 20 mg./kg. p.o., p < 0.01 vs aspirin control",79%
same,No. of ulcers per stomach,"[3]; 50 mg./kg. p.o. + aspirin 100 mg./kg., N 10",2.5 ± 1.5
same,Inhibition,"[3]; 50 mg./kg. p.o., p < 0.01 vs aspirin control",85%
same,ED50,"[3]; Rattus norvegicus, 4 h, aspirin-induced gastric ulcer formation, oral",8 mg/kg
same,LD50,[4],> 1500 mg/kg
same,Tensile strength of the intestinal wall at 24 hours after the last treatment,[1]; 3 × (12 + 10) mg./kg. p.o. with Indomethacin,132 ± 16 mmHg
same,Tensile strength of the intestinal wall at 24 hours after the last treatment,[1]; [7],195 ± 8 mmHg
same,Resistance of the intestinal wall as % of the normal value,[1]; [7],82%
same,Tensile strength of the intestinal wall at 24 hours after the last treatment,[1]; [6],214 ± 6 mmHg
same,Resistance of the intestinal wall as % of the normal value,[1]; [6],90%
same,Resistance of the intestinal wall as % of the normal value,[1]; p.o. with Indomethacin,55%
same,Edema Inhibition,[2]; 1 mg./kg. p.o.,0%
same,Hemorrhagic lesions Inhibition,[2]; 1 mg./kg. p.o.,36%
same,Hemorrhagic lesions,"[2]; 1 mg./kg. p.o., N 7",88 ± 28 mm.
same,Edema,"[2]; 1 mg./kg. p.o., N 7",345 ± 93 mg
same,Edema Inhibition,[2]; 10 mg./kg. p.o.,44%
same,Hemorrhagic lesions Inhibition,"[2]; 10 mg./kg. p.o., p < 0.01 vs control",62%
same,Hemorrhagic lesions,"[2]; 10 mg./kg. p.o., N 7",51 ± 9 mm.
same,Edema,"[2]; 10 mg./kg. p.o., N 7",197 ± 52 mg
same,Edema Inhibition,[2]; [8],85%
same,Hemorrhagic lesions Inhibition,[2]; [8],88%
same,Hemorrhagic lesions,"[2]; 50 mg./kg. p.o., N 7",17 ± 6 mm.
same,Edema,"[2]; 50 mg./kg. p.o., N 7",53 ± 41 mg
same,ED50,"[2]; gastric edema, read-out: oral ED50 value of the gastric edema inhibition",12.5 mg/kg
same,ED50,"[2]; hemorrhagic lesions, read-out: oral ED50 value of the gastric hemorrhagic lesion inhibition",3 mg/kg
same,HCl output inhibition,[5]; 6 mg./kg. i.p.,19%
same,HCl output (4 hours),"[5]; 6 mg./kg. i.p., ± S.E.M.",425 ± 40 μmole/100 g. of body weight
same,HCl output inhibition,[5]; 10 mg./kg. p.o.,8%
same,HCl output (4 hours),"[5]; 10 mg./kg. p.o., ± S.E.M.",483 ± 40 μmole/100 g. of body weight
same,HCl output inhibition,"[5]; 12 mg./kg. i.p., p < 0.01 vs control",63%
same,HCl output (4 hours),"[5]; 12 mg./kg. i.p., ± S.E.M.",195 ± 25 μmole/100 g. of body weight
same,HCl output inhibition,[5]; 20 mg./kg. p.o.,10%
same,HCl output (4 hours),"[5]; 20 mg./kg. p.o., ± S.E.M.",468 ± 35 μmole/100 g. of body weight
same,HCl output inhibition,[5]; 25 mg./kg. i.p.,100%
same,HCl output (4 hours),[5]; 25 mg./kg. i.p.,0 μmole/100 g. of body weight
same,HCl output inhibition,[5]; 40 mg./kg. p.o.,22%
same,HCl output (4 hours),"[5]; 40 mg./kg. p.o., ± S.E.M.",409 ± 30 μmole/100 g. of body weight
